The values below come from a melting point compilation (Tetko et al.).

In the case of `Cc1noc(C)c1C(C)CC(=O)O` (stereo not drawn), the melting point is 95 to 97 °C.

Turning to `Nc1ccc2nc(N3CCOCC3)sc2c1`, the melting point was in the range of 166 to 168 °C.

As for `Sc1nnc(-c2ccccc2)c2ccccc12`, the melting point is 178 to 180 °C.

`Cc1ccc(-c2nnc(N)[nH]2)s1` gave a melting point of 222 to 224 °C.

The molecule `O=C(O)c1nc(C2CC2)n(-c2ccccc2Cl)n1` yielded a melting point of 162 to 164 °C.

`Sc1nnc(-c2ccncc2)n1C1CC1` gave a melting point of 303 to 305 °C.

With `CCOC(=O)c1cc(N)cc(S(C)(=O)=O)c1`, the melting point lay within 190 to 192 °C.

`NNC(=O)c1ccc(Cl)cc1O`: the melting point fell in the range of 209 to 211 °C.

In the case of `CC(=Cc1ccc(Cl)cc1)C(=O)O`, the melting point lay in the range of 159 to 161 °C.

In the case of `CC(C)(C)OC(=O)N1CCC(OC(=O)c2ccc(N)cc2)CC1`, the melting point lay within 147 to 149 °C.

Molecule `COc1cc(-c2nnc(CCl)o2)cc(OC)c1OC` came in with a melting point of 121 to 123 °C.

The molecule `Clc1ncnc2c1CCCCC2` showed a melting point of 50 to 52 °C.

On to `O=C1CCCC1c1ccccc1` (stereo not drawn), for which the melting point lay in the range of 35 to 37 °C.

In turn, `CC(C)(NC(=O)Nc1ccccc1)C(=O)O` yielded a melting point of 165 to 167 °C.

In turn, `CC(C)(C)NS(=O)(=O)c1ccc(F)c(N)c1` registered a melting point of 99 to 101 °C.

Turning to `O=C(O)Cc1cccc(OCCCOc2ccccc2)c1`, the melting point lay within 78 to 80 °C.

With `Cc1c(-c2ccncc2)n[nH]c1N`, the melting point fell in the range of 160 to 162 °C.

`COc1cc2c(cc1OC)C(c1cccs1)NCC2` (stereo not drawn): the melting point was in the range of 112 to 115 °C.

As to `CN(C)S(=O)(=O)c1ccc(O)c(N)c1`, the melting point is 154 to 156 °C.

For `O=C(O)c1ccc(-n2cc(Br)cn2)cc1`, the melting point was 273 to 275 °C.

In turn, `CCc1ocnc1C(=O)O` had a melting point of 104 to 106 °C.

Molecule `CC1(C)CCCC(C)(C)N1O` yielded a melting point of 36 to 38 °C.

Regarding `O=C(O)CCc1nc2ccccc2n1-c1ccccc1`, the melting point fell in the range of 232 to 234 °C.

With `O=C(O)c1cc2c(s1)-c1cc(F)ccc1SC2`, the melting point was in the range of 279 to 281 °C.

`O=Cc1cc(Br)c2c(c1)OCCO2` gave a melting point of 99 to 101 °C.

The molecule `CC(C)(C(=O)O)c1cccc(C#N)c1` yielded a melting point of 91 to 93 °C.

`CCCCCC(=O)Nc1cc(OC)c(OC)cc1C(=O)O` yielded a melting point of 178 to 180 °C.

`Nc1nc(-c2ccc3c(c2)CCC(=O)N3)cs1`: the melting point is 248 to 250 °C.

Molecule `Cc1cccc(NC(=O)C=NO)c1C` came in with a melting point of 110 to 112 °C.

Turning to `CC(N)C(O)c1ccc(F)cc1` (stereo not drawn), the melting point fell in the range of 87 to 89 °C.

In the case of `Nc1cc(Cl)ccc1S(N)(=O)=O`, the melting point fell in the range of 142 to 144 °C.

In the case of `COC(=O)C1CCN(c2ccnc(C#N)c2)CC1`, the melting point was 104 to 106 °C.

`COc1cc(C)nc(C=O)c1`: the melting point was 57 to 59 °C.

The molecule `OC1CCCc2c[nH]nc21` (stereo not drawn) yielded a melting point of 107 to 109 °C.

`O=C1NCCCC1Br` (stereo not drawn) showed a melting point of 49 to 51 °C.

`CCN1CC(C(=O)O)CC1=O` (stereo not drawn) showed a melting point of 92 to 94 °C.

Turning to `COC(=O)C1(C)CCc2ccccc2C1=O` (stereo not drawn), the melting point lay in the range of 56 to 58 °C.

In the case of `N#CCC(=O)Nc1cccc(Cl)c1`, the melting point fell in the range of 139 to 141 °C.

On to `O=C(O)/C=C/c1ccc(-n2ccnc2)cc1`, for which the melting point is 300 to 302 °C.

On to `CCCC1CNCCN1` (stereo not drawn), for which the melting point lay within 59 to 61 °C.

On to `NCc1ccc(C(=O)Nc2ccc(F)cc2)cc1`, for which the melting point lay within 145 to 147 °C.

`CC(C)c1cccc(S(N)(=O)=O)c1` gave a melting point of 74 to 76 °C.

Consider `COC(=O)c1ccc(Br)c(C)c1N`, for which the melting point is 79 to 81 °C.

For the molecule `Nc1ncc(Br)cc1S(N)(=O)=O`, the melting point was 199 to 201 °C.

As for `CCn1c2ccccc2c2cc(N=C=S)ccc21`, the melting point fell in the range of 118 to 120 °C.

Molecule `NC(=O)c1ccc(C(N)=S)cc1` had a melting point of 240 to 242 °C.

Take `Sc1ncnc2ccccc12`: the melting point lay within 293 to 295 °C.

The molecule `COc1nc2sccn2c1C=O` displayed a melting point of 130 to 132 °C.

In the case of `Cc1ccccc1-c1nn[nH]n1`, the melting point was in the range of 153 to 155 °C.

As for `CCNC(=O)c1ccc(F)cc1Br`, the melting point was in the range of 103 to 105 °C.

As for `Cc1ccc(S(N)(=O)=O)s1`, the melting point lay within 118 to 120 °C.

`NC1(C(=O)O)CCOCC1`: the melting point lay in the range of 268 to 270 °C.

The molecule `Cc1ccc(NC(=O)C(C)Cl)c(F)c1` (stereo not drawn) showed a melting point of 105 to 107 °C.

The molecule `CCC(CC)C(O)CN` (stereo not drawn) returned a melting point of 39 to 41 °C.

For the molecule `CCOC(=O)c1nc(Br)sc1NC`, the melting point fell in the range of 75 to 77 °C.

Molecule `CN(C)c1cccc(C(=O)NN)c1` returned a melting point of 99 to 101 °C.

The molecule `CC(N)C(=O)NO` (stereo not drawn) showed a melting point of 159 to 161 °C.

Consider `Nc1nnc(-c2ccc(Br)cc2)[nH]1`, for which the melting point lay in the range of 214 to 216 °C.

On to `Oc1ccc(-n2cnnn2)cc1`, for which the melting point was 209 to 211 °C.

Molecule `OCCCNC(c1ccccc1)c1ccccc1` had a melting point of 62 to 64 °C.

Take `Clc1cc(-c2ncc[nH]2)ccn1`: the melting point is 187 to 189 °C.

With `O=C(O)c1cccc(Sc2cccc(Br)c2)n1`, the melting point fell in the range of 113 to 115 °C.

In turn, `O=C(O)CNS(=O)(=O)c1cccc(C(F)(F)F)c1` yielded a melting point of 80 to 82 °C.

On to `O=[N+]([O-])c1cc2c(cc1S(=O)(=O)Cl)OCCCO2`, for which the melting point is 125 to 127 °C.

In the case of `Cc1ccc(-c2nc(S)n[nH]2)cc1`, the melting point was 125 to 128 °C.

Regarding `CC(C)C(NC(=O)OC(C)(C)C)C(N)=NO` (stereo not drawn), the melting point is 182 to 184 °C.

`C/C(=N\O)c1cccc(NC(=O)c2ccc(F)cc2)c1`: the melting point was in the range of 196 to 198 °C.

Molecule `CCOC(=O)c1cnc(O)nc1C` returned a melting point of 179 to 181 °C.

In turn, `Cc1oncc1C(=O)Nc1cccc(C(=O)O)c1` had a melting point of 245 to 247 °C.

Molecule `CCNC(=O)c1ccc(C)c(N)c1` returned a melting point of 74 to 76 °C.

In turn, `COc1ccc(S(N)(=O)=O)cc1N` yielded a melting point of 145 to 147 °C.

Regarding `Nc1nc(-c2ccccc2Cl)c(-c2ccccc2Cl)s1`, the melting point was 198 to 200 °C.

Turning to `Nc1sc2c(c1C(=O)c1cccc(Cl)c1)CCC2`, the melting point was in the range of 129 to 131 °C.

Regarding `O=Cc1ccc(C(=O)O)cc1Cl`, the melting point was 218 to 220 °C.

In turn, `Oc1ccc2c(O)ccnc2c1` displayed a melting point of 207 to 209 °C.

`Nc1ccc(S(F)(F)(F)(F)F)cc1Br`: the melting point fell in the range of 58 to 60 °C.

`O=C(c1ccc(Br)cc1)c1ccco1` showed a melting point of 63 to 65 °C.

For `COc1cccc(CC2(C(=O)O)CC3CCC2C3)c1` (stereo not drawn), the melting point lay within 67 to 69 °C.

Molecule `Nc1cc(Cl)c(NC(=O)c2ccsc2)c(Cl)c1` displayed a melting point of 206 to 208 °C.

`Cc1ccc(N)c(OCC(=O)N(C)C)c1` gave a melting point of 83 to 85 °C.

Molecule `Cn1c(=O)oc2cc(Br)ccc21` came in with a melting point of 144 to 146 °C.

`CCOc1ccc(-c2cc(N)on2)cc1` returned a melting point of 126 to 128 °C.

Turning to `NC(=O)N1CCc2cc(S(=O)(=O)F)ccc21`, the melting point was 218 to 220 °C.

`CN(C)c1cc2ccccc2c(=O)[nH]1` returned a melting point of 185 to 187 °C.

In turn, `Sc1nnc(-c2cccs2)n1CC1CCCO1` (stereo not drawn) showed a melting point of 107 to 108 °C.

Molecule `O=C(c1ccc2c(c1)CCO2)c1cc(Cl)ccc1Cl` came in with a melting point of 81 to 83 °C.

For the molecule `O=C(O)c1cc(S(=O)(=O)N2CCCCC2)ccc1Br`, the melting point lay in the range of 230 to 232 °C.

Consider `CCOC(=O)CC(=O)c1[nH]c(C)c(C(=O)OCC)c1C`, for which the melting point lay in the range of 141 to 143 °C.

`CN1CCN(C(=O)c2ccc(C#N)cn2)CC1` showed a melting point of 83 to 85 °C.

As to `CCOC(=O)c1cc(CC)sc1N`, the melting point was in the range of 69 to 71 °C.

On to `O=C(O)C1CC1c1ccc(OCc2ccccc2)cc1` (stereo not drawn), for which the melting point is 147 to 149 °C.

On to `Cc1ccc(NC(=O)OCC(F)(F)F)s1`, for which the melting point fell in the range of 73 to 75 °C.

For the molecule `Cc1cc(C#N)ccc1NC1CCC(O)CC1` (stereo not drawn), the melting point was in the range of 119 to 121 °C.

`Cc1cc(C(=O)O)ccc1I` came in with a melting point of 218 to 220 °C.

With `Cn1cc([N+](=O)[O-])ccc1=O`, the melting point fell in the range of 172 to 174 °C.

Molecule `O=C(O)CCNC(=O)NC1CCCCC1` showed a melting point of 163 to 165 °C.

Molecule `O=C(O)c1nnn(C2CC2)c1C(F)(F)F` showed a melting point of 90 to 92 °C.

As for `Cc1nn(-c2ccc(Br)cc2)c(C)c1C(=O)O`, the melting point lay in the range of 231 to 233 °C.

In turn, `CN(C)C=CC(=O)C(F)(F)F` showed a melting point of 52 to 54 °C.

As for `Cc1nc(C2COCCN2C(=O)OC(C)(C)C)no1` (stereo not drawn), the melting point was in the range of 96 to 98 °C.

Regarding `CNCc1nc2ccccc2s1`, the melting point lay within 30 to 34 °C.

Molecule `O=[N+]([O-])c1cccc(-c2cn[nH]c2)c1` had a melting point of 154 to 156 °C.

Turning to `Cc1cc(C(=O)O)c(C)n1-c1cccnc1`, the melting point was 192 to 194 °C.

On to `Cc1ccc(Cl)cc1NC(=O)CC#N`, for which the melting point was in the range of 190 to 192 °C.

`COC(=O)c1cc(N)cc(S(C)(=O)=O)c1` registered a melting point of 194 to 196 °C.

In turn, `Cn1c(NCCO)nc2ccccc21` gave a melting point of 75 to 77 °C.

As to `N#Cc1cc(N)ccc1N1CCC(O)CC1`, the melting point fell in the range of 137 to 139 °C.

`O=C(O)C1CCCCN1C(=O)C1CCCO1` (stereo not drawn) gave a melting point of 116 to 118 °C.

`O=C(O)c1cc(Cl)ccc1Oc1ccc(F)cc1` showed a melting point of 102 to 104 °C.

Molecule `Cn1ccc2ccnc(Cl)c21` came in with a melting point of 57 to 59 °C.

`CCOC(=O)c1cnc2c(C)cc(C)cc2c1Cl` yielded a melting point of 72 to 74 °C.

The molecule `Cc1cccc(OCC(O)CN)c1` (stereo not drawn) had a melting point of 75 to 77 °C.

With `O=C1Nc2c(Br)cc(F)cc2C1=O`, the melting point lay in the range of 215 to 217 °C.

The molecule `Cc1noc(C)c1COc1cccc(C(=O)O)c1` came in with a melting point of 157 to 159 °C.

`O=C(O)c1cnc(Oc2ccccc2)cn1` showed a melting point of 134 to 136 °C.

Take `CCOC(=O)c1nc(-c2ccccc2)oc1CBr`: the melting point lay within 94 to 96 °C.

`O=C(O)CCn1cc(Br)ccc1=O` registered a melting point of 172 to 174 °C.

Regarding `N#Cc1cc(C(F)(F)F)ccc1S(=O)(=O)Cl`, the melting point is 87 to 89 °C.

Molecule `CCCn1c(C)c(C(=O)O)c2cc(OC)ccc21` came in with a melting point of 171 to 173 °C.

The molecule `CC(C)(C)c1nonc1N` yielded a melting point of 90 to 92 °C.

Consider `COC(=O)c1ccc(Oc2ccc([N+](=O)[O-])cc2)nn1`, for which the melting point fell in the range of 194 to 196 °C.

In turn, `CC(C)c1cc(N)n(-c2ncccn2)n1` had a melting point of 146 to 148 °C.

Molecule `NCc1ccccc1CN1CCC(O)CC1` showed a melting point of 83 to 85 °C.
